# Assay results as given in US11504399B2, “Combination therapy for a stable and long term engraftment using specific protocols for T/B cell depletion” (Yeda Research and Development Co. Ltd., priority 2011, dated 2022).
# Where two headings read alike, the source gives them in different places.
# How the values were obtained:
# [1] = tested on: allogeneic recipients (C3H/Hen) of Balb/c-Nude BM cells; conditions: for donor type chimerism expressed: regular dose 5×10^6 T cell depleted BM, TCD, monohydrate
# Source text: Mice used in these studies were 6-12 week old female mice. Balb/c-Nude (H-2d) and C3H/Hen (H-2k) were purchased from Harlan Israel (Rehovot, Israel). All mice were kept in small cages (5 animals in each cage) and fed sterile food and acid water. These studies were approved by the Weizmann Institute of Science, Institutional Animal Care and Use Committee.
# (§1) Low (5×10^6) and high dose (25×10^6) Balb/c-Nude BM cells (providing a source of BM depleted of T cells) were transplanted into allogeneic recipients (C3H/Hen) on day 0 following in-vivo T cell debulking (TCD) with anti-CD4 (clone GK1.5) and anti-CD8 (clone 53.6.72) antibodies (300 μg each; Bio X Cell, NH, USA) delivered on day −6, and exposure to 2.0 Gy total body irradiation (TBI) on day −1. High dose Cyclophosphamide (CY, 100 mg/kg, Baxter Oncology, Germany) was administered on days +3 and +4 post transplant and donor type chimerism was evaluated 35 and 95 days post transplant using fluorescein anti-host and donor H-2 antibodies (e.g. FlTC labeled anti-H-2D^d antibody specific for donor type cells and PE labeled anti-H-2K^k antibody specific for host type cells).
# Recipient mice (C3H/Hen) were treated with a conditioning protocol prior to transplantation of a T cell depleted bone marrow transplant. Specifically, mice were in-vivo treated with T cell debulking (TCD) using anti-CD4 and anti-CD8 antibodies delivered on day −6 and by exposure to 2.0 Gy total body irradiation (TBI) on day −1. Next, low (5×10^6) or high dose (25×10^6) Balb/c-Nude BM cells (providing a source of BM depleted of T cells, as Nude mice have miniscule numbers of mature T cells) were transplanted into allogeneic recipients (C3H/Hen) on day 0. High dose cyclophosphamide (CY, 100 mg/kg) was administered on days +3 and +4 post transplant. Evaluation of bone marrow cell engraftment was evaluated by donor type chimerism at 35 and 95 days post transplant.
# as §1, with “High” for “Low (5×10^6) and high”, “different doses of irradiation ranging from 1 to 3.5” for “2.0”, “TBI” for “total body irradiation (TBI)”, “30” for “35 and 95”
# High dose Cyclophosphamide (CY) was administered on days +3 and +4 post transplant and donor type chimerism was evaluated at 30 days post transplant.
# as §1, with “High dose” for “Low (5×10^6) and high dose”, “−1. Different doses of” for “−1. High dose”, “mg/kg, 125 mg/kg or 150 mg/kg,” for “mg/kg,”, “Germany) were” for “Germany) was”, “evaluated 30” for “evaluated 35 and 95”
# [2] = tested on: C3H/Hen recipient mice with Balb/c and C57BL/6 skin grafts
# Experimental: Donor (Balb/c) and 3rd party (C57BL/6) skin grafts were transplanted to the mixed chimeric recipients as described above [i.e. to those mice which were previously transplanted with mega dose (25×10^6) T cell depleted BM and were treated with high dose CY] and to the recipient mice that were inoculated with a regular (5×10^6) T cell depleted BM cell dose and were treated with high dose CY.
# Tolerance induction was measured by transplantation of donor (Balb/c) and 3rd party (C57BL/6) skin grafts to the mixed chimeric recipients that were transplanted with mega dose (25×10^6) T cell depleted BM and were treated with high dose CY (as described above), in comparison to the recipients that were inoculated with a regular (5×10^6) T cell depleted BM cell dose (as described above).
structure (smiles),measurement,setting,value
"O.O=P1(N(CCCl)CCCl)NCCCO1 (stereo not drawn) [CY, 2-[bis(2-chloroethyl)amino]tetrahydro-2H-1,3,2-oxazaphosphorine 2-oxide monohydrate]",mixed chimerism,"[1]; 5×10^6 T cell depleted BM and CY, 180 and 225 days post transplant",did not exhibit mixed chimerism
same,percentage of chimeric mice,"[1]; 25×10^6 BM, 1.0 Gy TBI, CY 100 mg/kg days +3 and +4, 30 days post transplant (5/6)",83%
same,percentage of chimeric mice,"[1]; 25×10^6 BM, 2 Gy TBI, CY 100 mg/kg days +3 and +4, 30 days post transplant (13/15)",87%
same,chimeric recipient mice,"[1]; 25×10^6 BM, 2.5, 3 or 3.5 Gy TBI, CY 100 mg/kg days +3 and +4, 30 days post transplant",6/6
same,effect of depletion of CD8+ cells from the BM preparation on level of chimerism,"[1]; 25×10^6 CD8 depleted vs non-depleted Balb/c-Nude BM, 2 Gy TBI, CY 100 mg/kg days +3 and +4, 30 days",did not have any adverse impact
same,number of donor type chimeric recipients and level of donor chimerism,"[1]; 25×10^6 T cell depleted BM and CY, follow-up 180 and 225 days post transplant",remained unchanged
same,mice with durable mix chimerism,"[1]; 25×10^6 T cell depleted BM, TCD day −6, 2 Gy TBI day −1, CY 100 mg/kg days +3 and +4, day 35 and day 95",4 out of 7
same,effect of increasing CY dose on chimerism,"[1]; CY 125 mg/kg or 150 mg/kg compared to 100 mg/kg, 25×10^6 BM, 2 Gy TBI, 30 days",did not provide a significant enhancement of chimerism
same,donor type chimerism expressed,"[1]; 2 Gy TBI, CY 100 mg/kg days +3 and +4, day 35 and day 95, listed as cyclophosphamide",none
same,donor type chimerism expressed,"[1]; 2 Gy TBI, CY 100 mg/kg days +3 and +4, day 35 and day 95",did not exhibit donor type chimerism
same,skin graft outcome,[2]; 5×10^6 T cell depleted BM cells and CY,rejected both the donor and 3rd party skin grafts
same,chimeric mice that accepted the donor graft and rejected the 3rd party skin grafts,"[2]; 25×10^6 T cell depleted BM, high dose CY days +3 and +4",three out of 4
